Assays:
[1] = target: T1, 6His-Tev-LRRK2 (1326-2527) (Homo sapiens, UniProt Q5S007); assay: LRRK2 AlphaScreen desensitised protein substrate assay; assay type: biochemical; details: mean pIC50 of multiple test results
T1 construct: A LRRK2 cDNA encoding residues 1326-2527 was received from Dundee University; made in house; host or cells: Spodoptera frugiperda (Sf9) insect cells, baculovirus (pFB-HTb)
T1 sequence (Q5S007 1326-2527): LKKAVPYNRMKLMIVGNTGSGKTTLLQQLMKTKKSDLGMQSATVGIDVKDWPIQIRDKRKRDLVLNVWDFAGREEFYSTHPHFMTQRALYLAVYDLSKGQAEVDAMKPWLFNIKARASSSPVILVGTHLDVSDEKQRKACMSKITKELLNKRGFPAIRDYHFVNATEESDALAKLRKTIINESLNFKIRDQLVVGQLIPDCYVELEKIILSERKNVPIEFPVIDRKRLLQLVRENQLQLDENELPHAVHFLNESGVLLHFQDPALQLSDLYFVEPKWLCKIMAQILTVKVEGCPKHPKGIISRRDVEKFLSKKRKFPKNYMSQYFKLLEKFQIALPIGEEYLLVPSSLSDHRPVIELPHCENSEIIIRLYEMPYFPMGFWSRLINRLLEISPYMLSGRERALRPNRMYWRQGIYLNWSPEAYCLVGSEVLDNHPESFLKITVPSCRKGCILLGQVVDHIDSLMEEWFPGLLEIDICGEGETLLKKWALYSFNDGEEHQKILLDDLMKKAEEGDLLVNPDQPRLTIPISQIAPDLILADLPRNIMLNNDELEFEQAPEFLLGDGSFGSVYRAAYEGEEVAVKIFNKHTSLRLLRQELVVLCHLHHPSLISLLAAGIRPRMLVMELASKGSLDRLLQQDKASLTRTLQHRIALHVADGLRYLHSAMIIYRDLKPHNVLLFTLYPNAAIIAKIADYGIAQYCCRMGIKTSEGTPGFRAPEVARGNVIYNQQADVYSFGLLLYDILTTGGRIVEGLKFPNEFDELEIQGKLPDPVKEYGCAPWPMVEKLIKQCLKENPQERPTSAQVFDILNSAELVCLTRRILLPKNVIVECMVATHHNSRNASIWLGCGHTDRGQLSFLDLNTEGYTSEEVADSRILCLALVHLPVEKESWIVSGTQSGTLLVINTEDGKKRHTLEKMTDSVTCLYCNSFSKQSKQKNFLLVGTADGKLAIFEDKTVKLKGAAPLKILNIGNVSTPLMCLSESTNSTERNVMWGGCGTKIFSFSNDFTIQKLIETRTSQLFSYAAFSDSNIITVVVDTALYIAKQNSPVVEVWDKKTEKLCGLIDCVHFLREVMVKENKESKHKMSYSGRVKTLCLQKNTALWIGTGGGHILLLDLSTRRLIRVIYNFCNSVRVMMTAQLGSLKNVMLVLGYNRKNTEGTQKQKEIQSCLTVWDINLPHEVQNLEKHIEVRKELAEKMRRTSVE
Procedure: (§1) Compounds of formula (I) may be tested for in vitro kinase activity in accordance with the following assays, using the non natural, in vitro, substrates moesin and the Longer Biotin-LRRKtide. Moesin and a shorter version of the peptide were identified as substrates in Jaleel et al. (2007, Biochem J, 405: 307-317).
(§2) b) 3 μl enzyme solution (80 nM purified recombinant 6His-Tev-LRRK2 (1326-2527) in assay buffer: 50 mM Hepes (pH 7.2), 10 mM MgCl2, 150 mM NaCl, 5% glycerol, 0.0025% triton X-100 and 1 mM DTT) is added to certain wells. 3 μl assay buffer is added to certain wells as a 100% inhibition (no enzyme) control. c) After incubation at room temperature for 30 minutes, 3 μl substrate solution (2 μM Biotin-LRRKtide peptide substrate and ATP at Km in assay buffer) is added to each well. Plates are then incubated for a further 1-2 hours at room temperature (incubation time varies depending upon rate and linearity of reaction with differing enzyme batches). d) 6 μl detection solution (50 nM Streptavidin SureLight® APC (PerkinElmer), 4 nM Eu-W1024 labelled anti-rabbit IgG antibody (PerkinElmer), 1:500 dilution (dilution determined on a batch to batch basis) of Phospho-Ezrin (Thr567)/Radixin (Thr564)/Moesin (Thr558) Polyclonal Antibody (New England Biolabs) and 60 mM EDTA in buffer: 40 mM Hepes (pH 7.2), 150 mM NaCl, 0.03% BSA) is added to each well. Plates are then incubated for a further 2 hours at room temperature before reading on a suitable plate reader (Excitation 330 nm, emission 620 nm (Eu) and 665 nm (APC)). Data is analysed using ActivityBase software (IDBS). LRRK2 AlphaScreen Desensitised Protein Substrate Assay a) 100 nl of a 1:4 serial dilution of test compound with a top final assay concentration of 30 μM is added to certain wells in a low volume 384 well black plate. 100 nl of DMSO is used in certain wells as controls. b) 3 μl enzyme solution (80 nM purified recombinant 6His-Tev-LRRK2 (1326-2527) in assay buffer: 50 mM Hepes (pH 7.2), 10 mM MgCl2, 150 mM NaCl, 5% glycerol, 0.0025% triton X-100 and 1 mM DTT) is added to certain wells. 3 μl assay buffer is added to certain wells as a 100% inhibition (no enzyme) control. c) After incubation at room temperature for 30 minutes, 3 μl substrate solution (200 nM GST-PS-Moesin (400-577) and 2 mM ATP in assay buffer) is added to each well. Plates are then incubated for 20 minutes at room temperature. d) 6 μl detection solution (1:250 dilution of AlphaLisa Protein A Acceptor beads (PerkinElmer), 1:64 dilution of AlphaLisa Gluthathione Donor beads (PerkinElmer) and 1:600 dilution (dilution determined on a batch to batch basis) of Phospho-Ezrin (Thr567)/Radixin (Thr564)/Moesin (Thr558) Polyclonal Antibody (New England Biolabs) in a buffer: 50 mM Hepes (pH 7.5), 250 mM NaCl, 60 mM EDTA, 1% PEG and 0.01% Brij 35) is added to each well. Plates are then incubated for a further 2 hours at room temperature in the dark before reading on an EnVision™ plate reader with AlphaScreen HTS turbo option module and AlphaScreen settings. Data is analysed using ActivityBase software (IDBS). Pharmacological Data

[2] = target: T1, 6His-Tev-LRRK2 (1326-2527); assay: LRRK2 peptide substrate assay; assay type: biochemical; details: mean pIC50 of multiple test results
Procedure: as §1
LRRK2 Peptide Substrate Assay
a) 100 nl of a 1:4 serial dilution of test compound with a top final assay concentration of 30 μM is added to certain wells in a low volume 384 well black plate. 100 nl of DMSO is used in certain wells as controls.
as §2

[3] = stated as threshold, read-out: pIC50 in the LRRK2 alphascreen desensitised protein substrate assay (bounds) (converted)
[4] = stated as threshold, read-out: pIC50 in the LRRK2 peptide substrate assay (bounds) (converted)
[5] = GST-PS-Moesin (400-577) substrate, 2 mM ATP, read-out: LRRK2 alphascreen desensitized protein substrate assay (pIC50) (converted)
[6] = Biotin-LRRKtide peptide substrate, ATP at Km, read-out: LRRK2 peptide substrate assay (pIC50) (converted)

IC50 [2, 4]	IC50 [2, 6]	SMILES	IC50 [1, 3]	IC50 [1, 5]
≤ 1260 nM	–	O=C(Nc1ccnnc1)c1cc(C(F)(F)F)c(CN2CCCCC2)cc1OCc1ccccc1 [Example 36, 2-[(Phenylmethyl)oxy]-4-(1-piperidinylmethyl)-N-4-pyridazinyl-5-(trifluoromethyl)benzamide]	≤ 25100 nM	–
≤ 100 nM	12.6 nM	Cn1cc(-c2cc(C(=O)Nc3cccnc3)c(OCc3ccccc3)cc2C(=O)N2CCOCC2)cn1 [Example 23, 5-(1-Methyl-1H-pyrazol-4-yl)-4-(4-morpholinylcarbonyl)-2-[(phenylmethyl)oxy]-N-3-pyridinylbenzamide]	≤ 316 nM	200 nM
≤ 100 nM	–	Cc1cc(OCc2ccccc2)c(C(=O)Nc2ccnnc2)cc1-c1cnn(C)c1 [Example 8, 4-Methyl-5-(1-methyl-1H-pyrazol-4-yl)-2-[(phenylmethyl)oxy]-N-4-pyridazinylbenzamide]	≤ 25100 nM	–
≤ 100 nM	–	O=C(Nc1ccnnc1)c1cc(Cl)c(C(=O)N2CCOCC2)cc1OCc1ccccc1 [Example 46, 5-Chloro-4-(4-morpholinylcarbonyl)-2-[(phenylmethyl)oxy]-N-4-pyridazinylbenzamide]	≤ 25100 nM	–
≤ 100 nM	–	CN1CCN(C(=O)c2cc(OCc3ccccc3)c(C(=O)Nc3cccnn3)cc2Cl)CC1 [Example 56, 2-(benzyloxy)-5-chloro-4-(4-methylpiperazine-1-carbonyl)-N-(pyridazin-3-yl)benzamide]	≤ 25100 nM	–
≤ 100 nM	15.8 nM	O=C(Nc1cccnc1)c1cc(C(F)(F)F)c(C(=O)N2CCCCC2)cc1OCc1ccccc1 [Example 39, 2-[(Phenylmethyl)oxy]-4-(1-piperidinylcarbonyl)-N-3-pyridinyl-5-(trifluoromethyl)benzamide]	≤ 316 nM	316 nM
≤ 100 nM	79.4 nM	Cn1cc(-c2cc(OCc3ccc(F)cc3)c(C(=O)Nc3cccnc3)cc2CN2CCOCC2)cn1 [Example 13, 2-{[(4-Fluorophenyl)methyl]oxy}-4-(1-methyl-1H-pyrazol-4-yl)-5-(4-morpholinylmethyl)-N-3-pyridinylbenzamide]	≤ 25100 nM	794 nM

Further lines, the compound ahead of its results:

SMILES	IC50 [2, 4]	IC50 [2, 6]	IC50 [1, 3]	IC50 [1, 5]
O=C(Nc1cccc(Cl)c1)c1cc(C(F)(F)F)c(CN2CCOCC2)cc1OCc1ccccc1 [Example 52, 2-(Benzyloxy)-N-(3-chlorophenyl)-4-(morpholinomethyl)-5-(trifluoromethyl)benzamide]	≤ 1260 nM	–	> 25100 nM	–
Cc1cc(OCc2ccccc2)c(C(=O)Nc2cccnc2)cc1Br [Example 6, 5-Bromo-4-methyl-2-[(phenylmethyl)oxy]-N-3-pyridinylbenzamide]	≤ 10 nM	–	≤ 316 nM	–
Cc1cc(C(=O)Nc2ccnnc2)c(OCc2ccccc2)cc1Br [Example 10, 4-Bromo-5-methyl-2-[(phenylmethyl)oxy]-N-4-pyridazinylbenzamide]	≤ 10 nM	6.31 nM	≤ 316 nM	100 nM
Cn1cc(-c2cc(C(=O)Nc3cccnc3)c(OCc3ccc(F)cc3F)cc2CN2CCOCC2)cn1 [Example 20, 2-{[(2,4-Difluorophenyl)methyl]oxy}-5-(1-methyl-1H-pyrazol-4-yl)-4-(4-morpholinylmethyl)-N-3-pyridinylbenzamide]	≤ 100 nM	63.1 nM	≤ 316 nM	200 nM
Cc1cc(C(=O)Nc2ccnnc2)c(OCc2ccccc2)cc1-c1cnn(C)c1 [Example 12, 5-Methyl-4-(1-methyl-1H-pyrazol-4-yl)-2-[(phenylmethyl)oxy]-N-4-pyridazinylbenzamide]	≤ 10 nM	10 nM	≤ 316 nM	100 nM
O=C(Nc1cccnc1)c1cc(C(F)(F)F)c(C(=O)N2CCOCC2)cc1OCc1ccccc1 [Example 37, 4-(4-Morpholinylcarbonyl)-2-[(phenylmethyl)oxy]-N-3-pyridinyl-5-(trifluoromethyl)benzamide]	≤ 100 nM	39.8 nM	≤ 25100 nM	794 nM
Cc1nocc1NC(=O)c1cc(-c2cnn(C)c2)c(CN2CCOCC2)cc1OCc1ccc(F)cc1F [Example 22, 2-{[(2,4-Difluorophenyl)methyl]oxy}-N-(3-methyl-4-isoxazolyl)-5-(1-methyl-1H-pyrazol-4-yl)-4-(4-morpholinylmethyl)benzamide]	> 25100 nM	–	≤ 25100 nM	–
O=C(Nc1cccnc1)c1cc(Cl)c(C(=O)N2CCC(F)(F)C2)cc1OCc1ccccc1 [Example 41, 5-Chloro-4-[(3,3-difluoro-1-pyrrolidinyl)carbonyl]-2-[(phenylmethyl)oxy]-N-3-pyridinylbenzamide]	≤ 100 nM	–	≤ 316 nM	–
Cc1nocc1NC(=O)c1cc(-c2cnn(C)c2)c(CN2CCOCC2)cc1OCc1ccc(F)cc1 [Example 18, 2-{[(4-Fluorophenyl)methyl]oxy}-N-(3-methyl-4-isoxazolyl)-5-(1-methyl-1H-pyrazol-4-yl)-4-(4-morpholinylmethyl)benzamide]	≤ 100 nM	12.6 nM	≤ 25100 nM	398 nM
